Data on two molecules can be found in patent US7615361B2, “Toxicity screening methods” (Ceetox, Inc., priority 2006, dated 2009).

Data set [1] concerns H4IIE cells. The data set can be described thus: Intracellular total glutathione (GSH). Format: cell-based, rat. To be noted: rat, 24 h. Summed up:
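Rat hepatoma H4IIE cells were exposed to compound in dosing solutions made in complete culture medium, then harvested for biochemical measurement of intracellular total glutathione as an oxidative-stress marker. Values are exposure-group means, n=3-7.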

Data set [2] relates to H4IIE cells. The data set can be described thus: MTT reduction. The class given is cell-based, rat. The settings on record: rat, 24 h. The gist of the method:
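Rat hepatoma H4IIE cells exposed to compound prepared in complete culture medium, with tetrazolium dye (MTT) reduction used as a mitochondrial-function read-out of cytotoxicity. Values are means of each exposure group (n=3-7).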

Another data set concerns ANP. The data set can be described thus: bDNA analysis of mRNA in rat cardiomyocytes. The class given is cell-based. To be noted: rat cardiomyocytes, 1, 3, 6 and 24 hours. The source says:
(§1) Hypertrophy of the heart ventricular myocytes is regulated by a complex series of intracellular signaling processes involving angiotensin receptors and a series of down stream gene expression changes (Li et al. 2006). Endothelin-1 (ET-1) induces hypertrophy of cardiomyocytes in vivo and in vitro. The mechanism of ET-1-induced hypertrophy consists in the activation of phospholipase C, protein kinase C, extra cellular signal regulated kinase (ERK) and upregulation of cfos and cjun.
(§2) Expression of ANP and BNP mRNA levels was determined by bDNA analysis of mRNA. ET-1 at 0.1 μM was included as a positive control.
(§3) […] Plates were mixed using a DPC 5 Micromix plate shaker at 37° C. for 15-30 minutes to ensure complete lysis of cells. Cell lysis was confirmed using a Nikon inverted microscope. Plates were stored at −80° C. until further analysis.
(§4) bDNA Analysis (Day 1): All solutions were prepared fresh on the day of analysis. Quantigene® bDNA kit components were brought to room temperature prior to use. Chemicals not supplied by Genospectra were obtained from Sigma-Aldrich.
(§5) On the day of analysis, Target Probe Sets were prepared for probe gene sets by adding 25 μL of each probe set component (CE, LE, BL) to 425 μL stock lysis solution using the following probe set concentrations: CE (50 fmol/μL), LE (200 fmol/μL), BL (100 fmol/μL).
(§6) Cell lysis plates were removed from freezer storage and thawed. […] Next, 10 μL of the appropriate Target Probe Set (PS2) was added to each appropriate well of the Capture Plate. Plates were tightly sealed using a plate sealer and incubated at 53° C. for 16-20 hr (overnight).
(§7) bDNA Analysis (Day 2): Wash buffer was prepared in ultra-pure water using 0.1×Saline-Sodium Citrate (SSC) and 0.03% Lithium Lauryl Sulfate (LLS). Amplifier working solution was prepared by adding 10 μL Amplifier to 10 mL Amplifier Diluent per plate.
(§8) Plates were removed from incubator and washed three times with 300 μL wash buffer. Wash buffer was completely removed from plates by aspiration and 100 μL Amplifier working solution was added to each well. Plates were sealed and incubated at 46° C. for 1 hr.
(§9) Label Probe working solution was prepared by adding 10 μL Label Probe to 10 mL Label Probe Diluent per plate. […] Plates were sealed and incubated at 46° C. for 1 hr.

The subject of a further data set is BNP. The data set can be described thus: bDNA analysis of mRNA in rat cardiomyocytes. Format: cell-based. The settings on record: rat cardiomyocytes, 1, 3, 6 and 24 hours.
Text: as §1, §2, §3, §4, §5, §6, §7, §8, §9

Data set [3] deals with reactive oxygen species (ROS). The data set can be described thus: DCFDA fluorescence. Format: cell-based, rat. To be noted: 5 μM.
Protocol: The production of reactive oxygen species (ROS) can be measured using 2′-7′dichloro-dihydrofluorescein diacetate (DCFDA).
Dihydro-2′,7′-dichloroflorescin-diacetate (DCFDA) for Monitoring Peroxide Formation: DCFDA (Sigma C-6827) was dissolved in DMSO at a concentration of 205 mM. The stock was diluted to 50 μM in phosphate buffered saline. Cells were preloaded with DCFDA for 1 hour prior to dosing with test compounds. Positive control wells were dosed with freshly prepared 300 μM t-Butyl hydroperoxide (tBHP). After compound exposure, the plates were washed with phosphate buffered saline and read at 485/530 in a Packard Fusion plate reader.
Dihydro-2′,7′-dichloroflorescin-diacetate (DCFDA) for Monitoring Peroxide Formation: Plates were read at 485/530 in a Packard Fusion plate reader or equivalent.
Another data set has as its system BAX. The data set can be described thus: bDNA analysis of mRNA in rat cardiomyocytes. To be noted: after 1 hr at 10 μM. Format: cell-based. Here is the method:
(§10) Bcl2 is often induced in response to BAX a protein that promotes apoptosis.
as §3, §4, §5, §6, §7
(§11) Plates were removed from incubator and washed three times with 300 μL wash buffer. […]

In another data set the test system is Bcl2. The data set can be described thus: bDNA analysis of mRNA in rat cardiomyocytes. The class given is cell-based. To be noted: after 6 hr at 10 μM. As for the experimental part: as §10, §3, §4, §5, §6, §7, §11
Another data set deals with C32 cells. The data set can be described thus: Caspase 3 activity (apoptosis). The settings on record: C32, 24 HR. Format: cell-based, human. As for the experimental part:
(§12) Caspase 3 Procedure: Caspase 3 activity was determined using a caspase substrate (DEVD, Asp-Glu-Val-Asp) labeled with a fluorescent molecule, 7-Amino4-methylcoumarin (AMC). Caspase 3 cleaves the tetrapeptide between D and AMC, thus releasing the fluorogenic […] AMC. Following the test article exposure to cells in 96-well plates, medium was aspirated from plates and PBS added to each well. Plates were stored at −80° C. to lyse cells and store samples until further analysis. On the day of analysis, plates were removed from freezer and thawed. Caspase buffer with fluorescent substrate was added to each well and incubated at room temperature for 1 hr. AMC release was measured in a spectrofluorometer at an excitation wavelength of 360 nm and an emission wavelength of 460 nm. Values are expressed as relative fluorescent units (RFU).
(§13) Caspase Activity: After sample plates were completely thawed, the caspase substrate buffer mix was added to each plate. Plates were incubated at room temperature for 1hr, shielded from light. Plates were read using a in a spectrofluorometer at an excitation wavelength of 360 nm and an emission wavelength of 460 nm. Values were expressed as relative fluorescent units (RFU).
(§14) The key to the maximal response data can be found below Table 2.
(§15) Dosing solutions were prepared in complete culture medium.

In another data set the test system is NHEM cells. The data set can be described thus: Caspase 3 activity (apoptosis). Format: cell-based, human. To be noted: 24 HR. Here is the method: as §12, §13, §14, §15
A further data set relates to SK-MEL28 cells. Put plainly: Caspase 3 activity (apoptosis). Format: cell-based, human. Here is the method:
as §12, §13, §14, §15

The test system of another data set is HUVEC. Put plainly: Caspase 3 activity (apoptosis). Format: cell-based, human. To be noted: 24 HR. As for the experimental part:
as §12, §13, §14, §15

Consider `COc1cccc2c1C(=O)c1c(O)c3c(c(O)c1C2=O)C[C@@](O)(C(=O)CO)C[C@@H]3O[C@H]1C[C@H](N)[C@H](O)[C@H](C)O1` [ADRIAMYCIN, Adriamycin], for which, in the data set on H4IIE cells [1], the 50% cytotoxic concentration (CC50) is 48 µM. In addition, in the data set with H4IIE cells [2], the CC50 was 26 µM and the “MTT affected less in liver cells compared to myocytes” value is “approximately 13 fold”. Also, the “effect on ANP expression” value in the data set with ANP is given as “no effect”. For the same molecule, the “effect on BNP expression” value in the data set with BNP is “no effect”. Moreover, the “increase in DCFDA (ROS related) fluorescence” value in data set [3] stood at 4 fold. Also, the BAX increase with BAX was 3 fold. The molecule also showed a Bcl2 induction with Bcl2 of 6 fold.

As for `CC[C@@]1(O)C(=O)OCc2c1cc1n(c2=O)Cc2cc3ccccc3nc2-1` [CAMPTOTHECIN, Camptothecin], the “Caspase 3 Activity (Index/Dose): Index” value is given as 4 (600-800 = 4) in the data set with C32 cells; 3 (400-600 = 3) in the data set on NHEM cells; 3 (400-600 = 3) in the data set on SK-MEL28 cells (SK-MEL28, 24 HR); 3 (400-600 = 3) with SK-MEL28 cells (SK-MEL28, 24 HR, COMP A (LOW) / controls #2); 3 (400-600 = 3) in the data set on SK-MEL28 cells (SK-MEL28, 72 HR, COMP A (LOW) / controls #2); 1 (0-200 = 1) in the data set with HUVEC. For the same molecule, the “Caspase 3 Activity (Index/Dose): Dose” value was found to be 300 in the data set with C32 cells (controls (μM section)); 300 with NHEM cells (controls (μM section)); 100 in the data set with SK-MEL28 cells (SK-MEL28, 24 HR, run #2, controls (μM section)); 300 in the data set with SK-MEL28 cells (SK-MEL28, 24 HR, controls (μM section of table)); 100 in the data set with SK-MEL28 cells (SK-MEL28, 72 HR, run #2, controls (μM section)); 300 with HUVEC (controls (μM section)).

What is called CC50 is the concentration at which the toxic effect on the cells reaches its halfway point.
